In US11427548B2 (Arvinas Operations, Inc., priority 2015, dated 2022):
Read-outs that look alike come from different tables or passages of the source.

Biological target: T1, Androgen Receptor (Homo sapiens, UniProt P10275)
T1 construct: endogenous in cells; host or cells: VCaP cells
T1 sequence (P10275 1-920): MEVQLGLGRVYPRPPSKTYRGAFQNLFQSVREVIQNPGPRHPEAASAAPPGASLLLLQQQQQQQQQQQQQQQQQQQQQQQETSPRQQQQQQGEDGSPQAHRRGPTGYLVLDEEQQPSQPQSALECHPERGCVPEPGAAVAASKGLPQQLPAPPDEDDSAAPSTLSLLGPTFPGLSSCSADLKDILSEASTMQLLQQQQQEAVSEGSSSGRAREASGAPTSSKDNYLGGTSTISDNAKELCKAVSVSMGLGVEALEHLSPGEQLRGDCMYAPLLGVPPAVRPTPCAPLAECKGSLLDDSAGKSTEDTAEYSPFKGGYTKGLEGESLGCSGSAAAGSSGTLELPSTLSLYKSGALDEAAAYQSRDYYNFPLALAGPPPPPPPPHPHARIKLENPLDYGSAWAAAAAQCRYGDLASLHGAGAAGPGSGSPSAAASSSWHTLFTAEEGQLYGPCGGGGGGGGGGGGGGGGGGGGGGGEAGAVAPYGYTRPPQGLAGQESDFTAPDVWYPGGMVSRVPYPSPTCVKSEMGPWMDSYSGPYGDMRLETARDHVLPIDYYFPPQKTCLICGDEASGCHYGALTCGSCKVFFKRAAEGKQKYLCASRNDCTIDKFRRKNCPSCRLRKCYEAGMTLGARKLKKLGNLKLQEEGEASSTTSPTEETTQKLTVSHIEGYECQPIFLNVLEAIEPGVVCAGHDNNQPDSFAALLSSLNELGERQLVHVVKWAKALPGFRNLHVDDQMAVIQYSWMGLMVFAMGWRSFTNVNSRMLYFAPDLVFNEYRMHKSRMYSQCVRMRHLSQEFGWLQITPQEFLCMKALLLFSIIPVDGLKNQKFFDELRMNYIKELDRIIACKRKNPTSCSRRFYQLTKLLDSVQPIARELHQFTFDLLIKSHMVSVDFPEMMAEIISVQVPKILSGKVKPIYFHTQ
Test: Androgen Receptor ELISA assay (PathScan AR ELISA) in VCaP cells: AR degradation, Dmax and DC50
Type: cell-based
Summary of the method: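 VCaP cells, 30,000/well, grown ≥3 days in phenol red-free RPMI with 5% charcoal-stripped FBS; compound added in 0.1% DMSO with 0.1 nM R1881, 7 half-log doses, 24 h. Lysate AR quantified by PathScan sandwich ELISA, HRP/TMB read at 450 nm, giving DC50 and Dmax.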

[1] = VCaP cells; Table 35; read-out: VCaP DC50
[2] = VCaP, VCaP cells; Table 35; read-out: VCaP Dmax (%)
[3] = read-out: VCaP DC50; VCaP cells; Table 35

Row | DC50 [1] | Dmax [2] | Compound | Dmax (VCaP, read-out: VCaP Dmax (%)) | DC50 [3]
1 | < 50 nM | 26 to 50% | CC(C)(C)[C@H](NC(=O)COCCCCCNc1ccc(C(=O)N[C@H]2C(C)(C)[C@H](Oc3ccc(C#N)c(Cl)c3)C2(C)C)cc1)C(=O)N1C[C@H](O)C[C@H]1C(=O)NCc1ccc(-c2ccccn2)cc1 [Example 536] |  | 
2 | < 50 nM | 26 to 50% | CC(C)(C)[C@H](NC(=O)COCCCCCNc1ccc(C(=O)N[C@H]2C(C)(C)[C@H](Oc3ccc(C#N)c(Cl)c3)C2(C)C)cc1)C(=O)N1C[C@H](O)C[C@H]1C(=O)NCc1ccc(C#N)cn1 [Example 539] |  | 
3 | < 50 nM | > 71% | CC(C)(C)[C@H](NC(=O)COCCNc1ccc(-c2ccc(C(=O)N[C@H]3C(C)(C)[C@H](Oc4ccc(C#N)c(Cl)c4)C3(C)C)cc2)cn1)C(=O)N1C[C@H](O)C[C@H]1C(=O)NCc1ccc(C#N)cc1 [Example 540] |  | 
4 | < 50 nM | > 71% | C[C@H](NC(=O)[C@@H]1C[C@@H](O)CN1C(=O)[C@@H](NC(=O)COCCCCCNc1ccc(C(=O)N[C@H]2C(C)(C)[C@H](Oc3ccc(C#N)c(Cl)c3)C2(C)C)cc1)C(C)(C)C)c1ccc(C#N)cc1 [Example 541] |  | 
5 | < 50 nM | > 71% | C[C@H](NC(=O)[C@@H]1C[C@@H](O)CN1C(=O)[C@@H](NC(=O)COCCOc1ccc(-c2ccc(C(=O)N[C@H]3C(C)(C)[C@H](Oc4ccc(C#N)c(Cl)c4)C3(C)C)cc2)cc1)C(C)(C)C)c1ccc(C#N)cc1 [Example 549] |  | 
6 | < 50 nM | > 71% | CC(C)(C)[C@H](NC(=O)COCCOc1ccc(-c2ccc(C(=O)N[C@H]3C(C)(C)[C@H](Oc4ccc(C#N)c(Cl)c4)C3(C)C)cc2)cc1)C(=O)N1C[C@H](O)C[C@H]1C(=O)NCc1ccc(C#N)cc1 [Example 550] |  | 
7 | < 50 nM | 51 to 70% | CC(C)(C)[C@H](NC(=O)COCCCCCNc1ccc(C(=O)N[C@H]2C(C)(C)[C@H](Oc3ccc(C#N)c(Cl)c3)C2(C)C)cn1)C(=O)N1C[C@H](O)C[C@H]1C(=O)NCc1ccc(C#N)cc1 [Example 551] |  | 
8 | < 50 nM | > 71% | Cc1ncsc1-c1ccc(CNC(=O)[C@@H]2C[C@@H](O)CN2C(=O)[C@@H](NC(=O)COCCNc2ccc(-c3ccc(C(=O)N[C@H]4C(C)(C)[C@H](Oc5ccc(C#N)c(Cl)c5)C4(C)C)cc3)cn2)C(C)(C)C)cc1 [Example 553] |  | 
9 | < 50 nM | > 71% | CC(C)c1ncsc1-c1ccc(CNC(=O)[C@@H]2C[C@@H](O)CN2C(=O)[C@@H](NC(=O)COCCCCCNc2ccc(C(=O)N[C@H]3C(C)(C)[C@H](Oc4ccc(C#N)c(Cl)c4)C3(C)C)cc2)C(C)(C)C)cc1 [Example 556] |  | 
10 | < 50 nM | > 71% | CC(C)(C)[C@H](NC(=O)COCCCCOc1ccc(C(=O)N[C@H]2C(C)(C)[C@H](Oc3ccc(C#N)c(Cl)c3)C2(C)C)cc1)C(=O)N1C[C@H](O)C[C@H]1C(=O)NCc1ccc(-n2cccn2)cc1 [Example 568] |  | 
11 | < 50 nM | > 71% | C[C@H](NC(=O)[C@@H]1C[C@@H](O)CN1C(=O)[C@@H](NC(=O)COCCCCOc1ccc(C(=O)N[C@H]2C(C)(C)[C@H](Oc3ccc(C#N)c(Cl)c3)C2(C)C)cc1)C(C)(C)C)c1ccc(-c2ncon2)cc1 [Example 569] |  | 

Second part, the compound before the results:

Row | Compound | DC50 [1] | Dmax [2] | Dmax (VCaP, read-out: VCaP Dmax (%)) | DC50 [3]
12 | Cc1ncsc1-c1ccc(CNC(=O)[C@@H]2C[C@@H](O)CN2C(=O)[C@@H](NC(=O)COCCCCCNc2ccc(C(=O)N[C@H]3C(C)(C)[C@H](Oc4ccc(C#N)c(Cl)c4)C3(C)C)cc2)C(C)C)cc1 [Example 537] | < 50 nM | 26 to 50% |  | 
13 | Cc1ncsc1-c1ccc(CNC(=O)[C@@H]2C[C@@H](O)CN2C(=O)[C@@H](NC(=O)COCCCCCNc2ccc(C(=O)N[C@H]3C(C)(C)[C@H](Oc4ccc(C#N)c(Cl)c4)C3(C)C)cc2)C(C)(C)C)nc1 [Example 538] | > 501 nM | 51 to 70% |  | 
14 | CC(C)(C)[C@H](NC(=O)COCCCCCNc1ccc(C(=O)N[C@H]2C(C)(C)[C@H](Oc3ccc(C#N)c(Cl)c3)C2(C)C)cc1)C(=O)N1C[C@H](O)C[C@H]1C(=O)NCc1ccc(C#N)cc1 [Example 542] | < 50 nM | > 71% |  | 
15 | Cc1ncsc1-c1ccc(CNC(=O)[C@@H]2C[C@@H](O)CN2C(=O)[C@@H](NC(=O)COCCOc2ccc(-c3c(F)cc(C(=O)N[C@H]4C(C)(C)[C@H](Oc5ccc(C#N)c(Cl)c5)C4(C)C)cc3F)cc2)C(C)(C)C)cc1 [Example 543] | < 50 nM | > 71% |  | 
16 | Cc1ncsc1-c1ccc(CNC(=O)[C@@H]2C[C@@H](O)CN2C(=O)[C@@H](NC(=O)COCCN2CCN(c3ccc(C(=O)N[C@H]4C(C)(C)[C@H](Oc5ccc(C#N)c(Cl)c5)C4(C)C)cc3)CC2)C(C)(C)C)cc1 [Example 544] | < 50 nM | > 71% |  | 
17 | Cc1ncsc1-c1ccc(CNC(=O)[C@@H]2C[C@@H](O)CN2C(=O)[C@@H](NC(=O)COCCCCOc2ccc(-c3ccc(N4C(=S)N(c5ccc(C#N)c(C(F)(F)F)c5)C(=O)C4(C)C)cc3)cc2)C(C)(C)C(=O)OC(C)(C)C)cc1 [Example 545] |  |  | 51 to 70% | < 50 nM
18 | Cc1ncsc1-c1ccc(CNC(=O)[C@@H]2C[C@@H](O)CN2C(=O)[C@@H](NC(=O)COCCCCOc2ccc(-c3ccc(N4C(=S)N(c5ccc(C#N)c(C(F)(F)F)c5)C(=O)C4(C)C)cc3)cc2)C(C)(C)C(=O)O)cc1 [Example 546] |  |  |  | > 501 nM
19 | CC(C)(C)[C@H](NC(=O)COCCCCNc1ccc(C(=O)N[C@H]2C(C)(C)[C@H](Oc3ccc(C#N)c(Cl)c3)C2(C)C)cc1)C(=O)N1C[C@H](O)C[C@H]1C(=O)NCc1ccc(C#N)cc1 [Example 547] | < 50 nM | 51 to 70% |  | 
20 | C[C@H](NC(=O)[C@@H]1C[C@@H](O)CN1C(=O)[C@@H](NC(=O)COCCCCOc1ccc(C(=O)N[C@H]2C(C)(C)[C@H](Oc3ccc(C#N)c(Cl)c3)C2(C)C)cc1)C(C)(C)C)c1ccc(C#N)cc1 [Example 548] | < 50 nM | 51 to 70% |  | 
21 | CC(C)(C)[C@H](NC(=O)COCCCCCNc1ccc(C(=O)N[C@H]2C(C)(C)[C@H](Oc3ccc(C#N)c(Cl)c3)C2(C)C)cc1)C(=O)N1C[C@H](O)C[C@H]1C(=O)NCc1ccc(Cl)cc1 [Example 552] | < 50 nM | 51 to 70% |  | 
22 | Cc1ncsc1-c1ccc(CNC(=O)[C@@H]2C[C@@H](O)CN2C(=O)[C@@H](NC(=O)COCCCCNc2ccc(-c3ccc(N4C(=S)N(c5ccc(C#N)c(C(F)(F)F)c5)C(=O)C4(C)C)cc3)cn2)C(C)(C)C)cc1 [Example 554] |  |  | 51 to 70% | < 50 nM
23 | CC(C)(C)[C@H](NC(=O)COCCCCCNc1ccc(C(=O)N[C@H]2C(C)(C)[C@H](Oc3ccc(C#N)c(Cl)c3)C2(C)C)cc1)C(=O)N1C[C@H](O)C[C@H]1C(=O)NCc1ccc(-c2scnc2C2CC2)cc1 [Example 555] | < 50 nM | > 71% |  | 
24 | Cc1ncsc1-c1ccc([C@H](C)NC(=O)[C@@H]2C[C@@H](O)CN2C(=O)[C@@H](NC(=O)COC[C@H](O)[C@@H](O)COc2ccc(-c3ccc(N4C(=S)N(c5ccc(C#N)c(C(F)(F)F)c5)C(=O)C4(C)C)cc3)cc2)C(C)(C)C)cc1 [Example 559] |  |  | > 71% | < 50 nM
25 | Cc1ncsc1-c1ccc(CNC(=O)[C@@H]2C[C@@H](O)CN2C(=O)[C@@H](NC(=O)COC[C@@H](O)[C@H](O)COc2ccc(C(=O)N[C@H]3C(C)(C)[C@H](Oc4ccc(C#N)c(Cl)c4)C3(C)C)cc2)C(C)(C)C)cc1 [Example 563] | < 50 nM | 51 to 70% |  | 
26 | Cc1ncsc1-c1ccc(CNC(=O)[C@@H]2C[C@@H](O)CN2C(=O)[C@@H](NC(=O)COC[C@H]2C[C@H](Oc3ccc(C(=O)N[C@H]4C(C)(C)[C@H](Oc5ccc(C#N)c(Cl)c5)C4(C)C)cc3)C2)C(C)(C)C)cc1 [Example 564] | < 50 nM | > 71% |  | 
27 | Cc1ncsc1-c1ccc(CNC(=O)[C@@H]2C[C@@H](O)CN2C(=O)[C@@H](NC(=O)COC[C@H]2C[C@H](Oc3ccc(-c4ccc(N5C(=S)N(c6ccc(C#N)c(C(F)(F)F)c6)C(=O)C5(C)C)cc4)cc3)C2)C(C)(C)C)cc1 [Example 565] |  |  | > 71% | < 50 nM
28 | Cc1ncsc1-c1ccc(CNC(=O)[C@@H]2C[C@@H](O)CN2C(=O)[C@@H](NC(=O)COC[C@@H](O)[C@H](O)COc2ccc(-c3ccc(N4C(=S)N(c5ccc(C#N)c(C(F)(F)F)c5)C(=O)C4(C)C)cc3)cc2)C(C)(C)C)cc1 [Example 566] |  |  | 51 to 70% | < 50 nM
29 | Cc1ncsc1-c1ccc(CNC(=O)[C@@H]2C[C@@H](O)CN2C(=O)[C@@H](NC(=O)COC[C@H](O)[C@@H](O)COc2ccc(-c3ccc(N4C(=S)N(c5ccc(C#N)c(C(F)(F)F)c5)C(=O)C4(C)C)cc3)cc2)C(C)(C)C)cc1 [Example 567] |  |  | > 71% | < 50 nM
